Measured values reported in patent US7923448B2, “Purine receptor inhibition as a therapeutic strategy in spinal cord and brain” (priority 2003, dated 2011).
Entries after “also recorded” stand apart in the source; their conditions may differ.

Experiments:
non-injured spinal cord = assay: Injection of ATP or ATP analogs into the non-injured spinal cord, TUNEL staining; format: in vivo, rat; details: 10 mM, 2 μl injected just lateral to the dorsal horn, 24 hrs later
Method: (§1) Adult female Spague-Dawley rats (220-250 g) were anesthetized with pentobarbital (50 mg/kg i.p.). When unresponsive, a double level laminectomy was performed at the T11 and T12 vertebrae. […] The tip of the rod was reduced to 1 mm to avoid direct traumatic injury of the dorsal venous complex. ATP and agonists (10 mM, 2 μl) were stereotaxically injected into T12 just lateral to the dorsal horn. All agents were purchased from Sigma.
The rats were anesthetized with ketamine (60 mg/kg) and xylazine (10 mg/kg). After 12 hours post-fixation, the spinal cord is cryoprotected in 30% sucrose and cut in serial 20 μm para-saggital sections. Myelin was visualized with Luxol fast blue (Basso et al., “A Sensitive and Reliable Locomotor Rating Scale for Open Field Testing in Rats,” J Neurotrauma 12:1-21 (1995) and Nedergaard et al., “Characterization of Cortical Depolarization Evoked in Focal Cerebral Ischemia,” J Cereb Blood Flow Metab 13:568-574 (1993), which are hereby incorporated by reference in their entirety)). Immunohistochemistry and TUNEL staining were performed as described in (Lin et al., “Gap-Junction-Mediated Propagation and Amplification of Cell Injury,” Nat Neurosci 1:494-500 (1998); Lin et al., “Connexin Mediates Gap Junction-Independent Resistance to Cellular Injury,” J Neurosci 23:430-441 (2003); and Takano et al., “Glutamate Release Promotes Growth of Malignant Glioma,” Nat Med 7:1010-1015 (2001), which are hereby incorporated by reference in their entirety)). Immunofluorescence was visualized using confocal microscopy (BioRad MRC1024) and images analyzed by Metamorph software (Universal Imaging Corp.).
It was then determined whether increased extracellular ATP in itself, in the non-injured spinal cord, was sufficient for induction of cell death. ATP or ATP analogs, all in a concentration of 10 mM (2 μl), were injected into the spinal cord just lateral to the dorsal horn. A large number of TUNEL-positive cells were present 24 hrs later in both gray and white matter (FIG. 2F). […] These observations indicate that raising extracellular ATP concentration is sufficient for induction of cell death in the non-injured spinal cord. In this regard, P2X7 receptors are expressed by most immune cells and their activation leads to multiple downstream events, including cell permeabilization and apoptosis (Chow et al., “Purines and Their Roles in Apoptosis,” Neuropharmacology 36:1149-1156 (1997) and Di Virgilio et al., “Cytolytic P2X Purinoceptors,” Cell Death Differ 5:191-199 (1998), which are hereby incorporated by reference in their entirety)).

P2X7 receptors [1] = biological target: T1, P2X7 receptors (Rattus norvegicus, UniProt Q64663); assay: Current clamp recording of spiking in spinal cord neurons (slices); details: for spiking (action potential firing) of spinal cord neurons: 100 μM, current clamp; for effect on BzATP-induced increase in spike rate (FIG. 4 legend): BzATP 100 μM, OxATP 100 μM, NBQX 10 μM and CPP 5 μM applied combined
T1 sequence (Q64663 1-595): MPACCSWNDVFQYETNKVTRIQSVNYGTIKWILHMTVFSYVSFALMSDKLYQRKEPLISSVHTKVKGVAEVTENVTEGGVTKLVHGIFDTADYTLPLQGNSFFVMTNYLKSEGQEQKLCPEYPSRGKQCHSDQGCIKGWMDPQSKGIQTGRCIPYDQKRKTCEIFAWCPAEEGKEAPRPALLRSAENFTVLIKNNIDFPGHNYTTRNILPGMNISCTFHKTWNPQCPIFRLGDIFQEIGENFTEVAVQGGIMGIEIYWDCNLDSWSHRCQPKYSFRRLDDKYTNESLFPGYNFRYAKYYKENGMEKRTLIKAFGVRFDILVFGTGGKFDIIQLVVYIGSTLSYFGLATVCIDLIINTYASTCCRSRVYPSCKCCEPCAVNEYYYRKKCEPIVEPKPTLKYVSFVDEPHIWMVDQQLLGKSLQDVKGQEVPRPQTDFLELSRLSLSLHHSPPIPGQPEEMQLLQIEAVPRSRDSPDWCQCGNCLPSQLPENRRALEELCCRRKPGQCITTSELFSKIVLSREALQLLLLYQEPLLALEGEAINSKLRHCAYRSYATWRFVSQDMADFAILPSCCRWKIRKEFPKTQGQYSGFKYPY

P2X7 receptors [2] = biological target: T1, P2X7 receptors; assay: Two-photon calcium imaging (fluo-4) of neurons in spinal cord slices; details: 100 μM; for cytosolic calcium concentration (fluo-4 emission) during bath application: 20 min agonist exposure, spinal cord slices
spinal cord injury [3] = assay: Weight-drop spinal cord injury, TUNEL-positive cells surrounding the lesion; format: in vivo, rat; details: 1 mM, 2 μl injected locally into the peri-traumatic zone immediately prior to impact; 24 hrs
Method: as §1
The rats were anesthetized with ketamine (60 mg/kg) and xylazine (10 mg/kg). After 12 hours post-fixation, the spinal cord is cryoprotected in 30% sucrose and cut in serial 20 μm para-saggital sections. Myelin was visualized with Luxol fast blue (Basso et al., “A Sensitive and Reliable Locomotor Rating Scale for Open Field Testing in Rats,” J Neurotrauma 12:1-21 (1995) and Nedergaard et al., “Characterization of Cortical Depolarization Evoked in Focal Cerebral Ischemia,” J Cereb Blood Flow Metab 13:568-574 (1993), which are hereby incorporated by reference in their entirety)). […] Immunofluorescence was visualized using confocal microscopy (BioRad MRC1024) and images analyzed by Metamorph software (Universal Imaging Corp.).
It was next determined whether OxATP protected against cell death in the area of high ATP release following spinal cord injury. […]

spinal cord injury [4] = assay: Weight-drop spinal cord injury, BBB open field locomotor rating scale; format: in vivo, rat; details: 1 mM, 2 μl local pretreatment; n=14
Method: as §1
The animals were evaluated daily for 2 weeks after injury and later on a biweekly basis.
It was next determined whether OxATP protected against cell death in the area of high ATP release following spinal cord injury. OxATP (1 mM, 2 μl) was injected locally into the peri-traumatic zone immediately prior to impact. […] The BBB open field locomotor rating scale was used to evaluate recovery of rats receiving OxATP versus vehicle treated control.

Compound: CSc1nc(N)c2ncn([C@@H]3O[C@H](COP(=O)(O)OP(=O)(O)OP(=O)(O)O)[C@@H](O)[C@H]3O)c2n1 [2MeSATP]
- apoptosis (TUNEL-positive cells) after injection into spinal cord (non-injured spinal cord): not associated with significant injury

Compound: Nc1ncnc2c1ncn2[C@@H]1O[C@H](COP(=O)(O)OP(=O)(O)OP(=O)(O)O)[C@@H](O)[C@H]1O [ATP]
- apoptosis (TUNEL-positive cells) after injection into spinal cord (non-injured spinal cord): induced a significant extent of apoptosis
- spiking (action potential firing) of spinal cord neurons (P2X7 receptors [1]): increase spiking rate; also recorded: induced high frequency spiking
- cytosolic calcium concentration (fluo-4 emission) during bath application (P2X7 receptors [2]): sustained increase in cytosolic calcium concentration

Compound: Nc1ncnc2c1ncn2[C@@H]1O[C@H](COP(=O)(O)OP(=O)(O)OP(O)(O)=S)[C@@H](O)[C@H]1O [ATPγS]
- apoptosis (TUNEL-positive cells) after injection into spinal cord (non-injured spinal cord): highest extent of apoptosis

Compound: O=C(O)C1CN(CCCP(=O)(O)O)CCN1 (stereo not shown) [CPP]
- effect on BzATP-induced increase in spike rate (FIG. 4 legend) (P2X7 receptors [1]): no significant effect

Compound: Nc1ncnc2c1ncn2[C@@H](C=O)O[C@@H](C=O)COP(=O)(O)OP(=O)(O)OP(=O)(O)O [OxATP, oxidized ATP]
- number of TUNEL positive cells surrounding the lesion versus vehicle controls (spinal cord injury [3]): highly significant reduction
- effect on BzATP-induced increase in spike rate (FIG. 4 legend) (P2X7 receptors [1]): prevented BzATP-induced increase in spike rate
- effect on agonist-increased spiking activity (P2X7 receptors [1]; pretreatment, OxATP 300 μM, ATP or BzATP 100 μM): attenuated
- BBB score difference versus vehicle, first week of recovery (spinal cord injury [4]): 2-4 points
- functional recovery (BBB) versus vehicle-treated controls (spinal cord injury [4]): significant improved recovery

Compound: Nc1ncnc2c1ncn2[C@@H]1O[C@H](COP(=O)(O)CP(=O)(O)OP(=O)(O)O)[C@@H](O)[C@H]1O [αβATP]
- apoptosis (TUNEL-positive cells) after injection into spinal cord (non-injured spinal cord): not associated with significant injury

Compound: BzATP
- apoptosis (TUNEL-positive cells) after injection into spinal cord (non-injured spinal cord): induced apoptosis with a potency equivalent to ATP
- spiking (action potential firing) of spinal cord neurons (P2X7 receptors [1]): increase spiking rate; also recorded: induced high frequency spiking
- spiking rate versus BzATP dose (P2X7 receptors [1]; n=5-9): increases in a dose-dependent manner
- Kd (P2X7 receptors [1]; read-out: kd (affinity, spiking response), spinal cord neurons): 23.8 µM
- cytosolic calcium concentration (fluo-4 emission) during bath application (P2X7 receptors [2]): sustained increase in cytosolic calcium concentration
- calcium elevation after washout (P2X7 receptors [2]; 20 min exposure followed by 20 min washout): failed to recover after washout

Compound: NBQX
- effect on BzATP-induced increase in spike rate (FIG. 4 legend) (P2X7 receptors [1]): no significant effect
